Measured values reported in ChEMBL document CHEMBL1250444, “Nitric oxide activates TRP channels by cysteine S-nitrosylation” (Nat Chem Biol, 2006).
The source made the active and inactive calls. The calls are words filed in the database; no cut-off is given here.

How the values were obtained:
[1] = test system: BAEC; assay: Inhibition of NO production in BAEC assessed as inhibition of Ca2+ influx at 10 mM; assay type: functional, cell-based; conditions: Bos taurus
[2] = target: T1, Short transient receptor potential channel 5 (Homo sapiens) (UniProt Q9UL62); assay: Induction of S-nitrosylation of TRPC5 in HEK cells assessed as increase in Ca2+ level from extracellular space at 5 mM extracellular administration; assay type: cell-based; conditions: HEK293
T1 sequence (whole entry): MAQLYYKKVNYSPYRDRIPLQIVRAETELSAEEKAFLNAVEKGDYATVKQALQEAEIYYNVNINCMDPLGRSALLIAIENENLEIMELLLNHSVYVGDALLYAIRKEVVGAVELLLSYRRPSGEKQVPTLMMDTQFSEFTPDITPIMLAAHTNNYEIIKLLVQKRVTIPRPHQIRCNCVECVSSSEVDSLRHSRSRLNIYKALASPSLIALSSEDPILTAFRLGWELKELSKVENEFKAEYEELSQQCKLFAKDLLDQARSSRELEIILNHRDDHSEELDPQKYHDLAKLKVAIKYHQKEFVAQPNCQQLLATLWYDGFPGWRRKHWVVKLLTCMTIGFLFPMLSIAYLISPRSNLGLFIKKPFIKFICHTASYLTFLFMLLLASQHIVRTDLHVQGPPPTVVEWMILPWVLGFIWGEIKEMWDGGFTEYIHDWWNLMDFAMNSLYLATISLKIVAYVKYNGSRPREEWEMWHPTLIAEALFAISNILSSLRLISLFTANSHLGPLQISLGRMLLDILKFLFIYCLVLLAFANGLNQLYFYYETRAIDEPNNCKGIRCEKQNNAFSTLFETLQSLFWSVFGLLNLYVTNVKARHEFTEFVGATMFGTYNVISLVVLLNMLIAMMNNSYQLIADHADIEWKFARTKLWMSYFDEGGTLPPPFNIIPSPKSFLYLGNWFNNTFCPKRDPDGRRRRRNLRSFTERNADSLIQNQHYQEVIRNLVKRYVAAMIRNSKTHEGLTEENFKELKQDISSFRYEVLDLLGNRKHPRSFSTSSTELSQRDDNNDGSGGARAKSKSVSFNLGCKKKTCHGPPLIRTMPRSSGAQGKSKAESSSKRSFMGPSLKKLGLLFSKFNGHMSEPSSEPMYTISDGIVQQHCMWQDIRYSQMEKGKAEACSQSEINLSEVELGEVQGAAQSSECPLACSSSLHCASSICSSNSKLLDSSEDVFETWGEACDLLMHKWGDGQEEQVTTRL

[3] = test system: DT40; assay: Induction of P2Y mediated TRPC5 S-nitrosylation in chicken DT40 cells assessed as increase in Ca2+ level from extracellular space at 100 uM in presence of PLC-beta inhibitor U73122; assay type: cell-based
[4] = test system: BAEC; assay: Inhibition of NO production in BAEC assessed as inhibition of Ca2+ influx at 1 mM; assay type: functional, cell-based; conditions: Bos taurus
[5] = target: T1, Short transient receptor potential channel 5 (Homo sapiens); assay: Induction of S-nitrosylation of TRPC5 in HEK cells assessed as increase in Ca2+ level from extracellular space at 50 uM; assay type: cell-based; conditions: HEK293
[6] = target: T1, Short transient receptor potential channel 5 (Homo sapiens); assay: Induction of S-nitrosylation of TRPC5 in HEK cells assessed as increase in Ca2+ level from extracellular space at 5 mM; assay type: cell-based; conditions: HEK293
[7] = target: T1, Short transient receptor potential channel 5 (Homo sapiens); assay: Induction of S-nitrosylation of TRPC5 in HEK cells assessed as increase in Ca2+ level from extracellular space at 1 mM; assay type: cell-based; conditions: HEK293
[8] = test system: BAEC; assay: Inhibition of NO production in BAEC assessed as inhibition of Ca2+ influx at 300 uM; assay type: functional, cell-based; conditions: Bos taurus
[9] = test system: BAEC; assay: Inhibition of NO production in BAEC at 300 uM; assay type: functional, cell-based; conditions: Bos taurus
[10] = target: T1, Short transient receptor potential channel 5 (Homo sapiens); assay: Induction of S-nitrosylation of TRPC5 in HEK cells assessed as inhibition of incorporation of DTNB-2Bio at 30 uM; assay type: cell-based; conditions: HEK293
[11] = target: T1, Short transient receptor potential channel 5 (Homo sapiens); assay: Induction of S-nitrosylation of TRPC5 in HEK cells assessed as increase in Ca2+ level from extracellular space at 10 uM; assay type: cell-based; conditions: HEK293

With `CC(=O)N[C@@H](CS)C(=O)O` the inhibition [1] was “Active”.

With `C[N+](C)(C)CCSS(C)(=O)=O` the Activity [2] was “inactive”.

With `Nc1ncnc2c1ncn2[C@@H]1O[C@H](COP(=O)(O)OP(=O)(O)OP(=O)(O)O)[C@@H](O)[C@H]1O` the Activity [3] was “inactive”.

`O=C1O[C@H]([C@@H](O)CO)C(O)=C1O` was tested, and the inhibition [4] was “Active”.

`O=C(O)c1cc(SSc2ccc([N+](=O)[O-])c(C(=O)O)c2)ccc1[N+](=O)[O-]` was tested, and the Activity [5] was “Active”.

`CC/C(=C\C(=N\O)C(N)=O)C(C)[N+](=O)[O-]` (racemic) was tested, and the Activity [6] was “Active”.

In the case of `[NH-]c1c[n+](N2CCOCC2)no1`, the Activity [7] was “Active”.

In the case of `COC(=O)[C@@H](N)CCCNC(=N)N[N+](=O)[O-]`, the inhibition [8] was “Active” and the inhibition [9] was “Active”.

With `O=C(CCCC[C@@H]1SC[C@@H]2NC(=O)N[C@@H]21)NCCCCCNC(=O)c1cc(SSc2ccc([N+](=O)[O-])c(C(=O)NCCCCCNC(=O)CCCC[C@@H]3SC[C@@H]4NC(=O)N[C@@H]43)c2)ccc1[N+](=O)[O-]` the Activity [10] was “Active”.

`O=c1onc2cnc3ccccc3n12` was tested, and the Activity [11] was “inactive”.

For `CS(=O)(=O)SCCN`, the Activity [2] was “Active”.

`c1cc(SSc2ccncc2)ccn1` was tested, and the Activity [5] was “Active”.
